How the values were obtained:
[1] = target: GDP-bound HRAS wild-type protein (Homo sapiens, UniProt P01112); test: Binding to HRAS by surface plasmon resonance (SPR), Single Cycle Kinetics; settings: KD ratio HRAS/KRAS, SPR
[2] = target: GDP-bound NRAS wild-type protein (Homo sapiens, UniProt P01111); test: Binding to NRAS by surface plasmon resonance (SPR), Single Cycle Kinetics; settings: KD ratio NRAS/KRAS, SPR
GDP-bound NRAS wild-type protein, sequence (P01111 whole entry): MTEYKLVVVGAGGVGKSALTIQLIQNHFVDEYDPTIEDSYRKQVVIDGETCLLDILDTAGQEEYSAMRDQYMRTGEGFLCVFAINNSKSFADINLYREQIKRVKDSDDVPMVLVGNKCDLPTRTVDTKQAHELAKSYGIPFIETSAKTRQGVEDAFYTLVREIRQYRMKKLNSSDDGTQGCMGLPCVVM

GDP-bound HRAS wild-type protein, sequence (P01112 whole entry): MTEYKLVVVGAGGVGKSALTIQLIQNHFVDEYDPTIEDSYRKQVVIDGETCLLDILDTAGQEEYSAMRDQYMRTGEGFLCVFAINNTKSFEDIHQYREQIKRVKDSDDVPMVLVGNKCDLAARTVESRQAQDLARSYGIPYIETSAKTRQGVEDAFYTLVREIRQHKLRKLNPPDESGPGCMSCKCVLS

SMILES	HRAS/KRAS (ratio of KD value with respect to GDP-bound HRAS wild-type protein to KD value with respect to KRAS) [1]	NRAS/KRAS (ratio of KD value with respect to GDP-bound NRAS wild-type protein to KD value with respect to KRAS) [2]
CC[C@H](C)[C@@H]1NC(=O)[C@H](CC)N(C)C(=O)C[C@@H](C(=O)N(C)C)N(CC)C(=O)[C@H](C2CCCC2)N(C)C(=O)C2(CCC2)NC(=O)[C@@H]2CCCCN2C(=O)[C@H](CCc2cc(F)c(C(F)(F)F)c(F)c2)NC(=O)CN(C)C(=O)[C@H](Cc2ccc(C(F)(F)F)cc2)N2CCCC[C@@H](C2=O)N(C)C(=O)CN(C)C1=O [PP0661]	B (a compound having 3 or more and less than 10 is denoted as B)	C (A compound having a KD ratio of 0.1 or more and less than 3 is denoted as C)
CC[C@H](C)[C@@H]1NC(=O)[C@H](CC(C)C)N(C)C(=O)C[C@@H](C(=O)N2CCOCC2)N(C)C(=O)[C@H](C2CCCC2)N(C)C(=O)C2(CCCC2)NC(=O)[C@@H]2[C@@H](O)CCN2C(=O)[C@H](CCc2cc(F)c(C(F)(F)F)c(F)c2)NC(=O)CN(C)C(=O)[C@H](Cc2ccc(C(F)(F)F)cc2)N2CCCCC[C@@H](C2=O)N(C)C(=O)CN(C)C1=O [PP0662]	B (a compound having 3 or more and less than 10 is denoted as B)	B (a compound having 3 or more and less than 10 is denoted as B)
CCO[C@@H]1C[C@H]2C(=O)NC3(CCC3)C(=O)N(C)[C@@H](C3CCCC3)C(=O)N(C)[C@H](C(=O)N(C)C)CC(=O)N(C)[C@@H](CC)C(=O)N[C@@H]([C@@H](C)CC)C(=O)N(C)CC(=O)N(C)[C@H]3CCCCCN(C3=O)[C@@H](Cc3ccc(C(F)(F)F)cc3)C(=O)N(C)CC(=O)N[C@@H](CCc3cc(F)c(C(F)(F)F)c(F)c3)C(=O)N2C1 [PP0663]	B (a compound having 3 or more and less than 10 is denoted as B)	B (a compound having 3 or more and less than 10 is denoted as B)
C=CC[C@H]1C(=O)N[C@@H]([C@@H](C)CC)C(=O)N(C)CC(=O)N(C)[C@H]2CCCCCN(C2=O)[C@@H](Cc2ccc(C(F)(F)F)cc2)C(=O)N(C)CC(=O)N[C@@H](CCc2cc(F)c(C(F)(F)F)c(F)c2)C(=O)N2C[C@H](OCC)C[C@H]2C(=O)NC2(CCC2)C(=O)N(C)[C@@H](C2CCCC2)C(=O)N(C)[C@H](C(=O)N(C)C)CC(=O)N1C [PP0665]	B (a compound having 3 or more and less than 10 is denoted as B)	B (a compound having 3 or more and less than 10 is denoted as B)
C#CC[C@H]1C(=O)N[C@@H]([C@@H](C)CC)C(=O)N(C)CC(=O)N(C)[C@H]2CCCCCN(C2=O)[C@@H](Cc2ccc(C(F)(F)F)cc2)C(=O)N(C)CC(=O)N[C@@H](CCc2cc(F)c(C(F)(F)F)c(F)c2)C(=O)N2C[C@H](OCC)C[C@H]2C(=O)NC2(CCC2)C(=O)N(C)[C@@H](C2CCCC2)C(=O)N(C)[C@H](C(=O)N(C)C)CC(=O)N1C [PP0666]	B (a compound having 3 or more and less than 10 is denoted as B)	B (a compound having 3 or more and less than 10 is denoted as B)
CCO[C@@H]1C[C@H]2C(=O)NC3(CCC3)C(=O)N(C)[C@@H](C3CCCC3)C(=O)N(C)[C@H](C(=O)N(C)C)CC(=O)N(C)[C@@H](CC3CC3)C(=O)N[C@@H]([C@@H](C)CC)C(=O)N(C)CC(=O)N(C)[C@H]3CCCCCN(C3=O)[C@@H](Cc3ccc(C(F)(F)F)cc3)C(=O)N(C)CC(=O)N[C@@H](CCc3cc(F)c(C(F)(F)F)c(F)c3)C(=O)N2C1 [PP0667]	B (a compound having 3 or more and less than 10 is denoted as B)	B (a compound having 3 or more and less than 10 is denoted as B)
CCO[C@@H]1C[C@H]2C(=O)NC3(CCC3)C(=O)N(C)[C@@H](C3CCCC3)C(=O)N(C)[C@H](C(=O)N(C)C)CC(=O)N(C)[C@@H](CC3CCC3)C(=O)N[C@@H]([C@@H](C)CC)C(=O)N(C)CC(=O)N(C)[C@H]3CCCCCN(C3=O)[C@@H](Cc3ccc(C(F)(F)F)cc3)C(=O)N(C)CC(=O)N[C@@H](CCc3cc(F)c(C(F)(F)F)c(F)c3)C(=O)N2C1 [PP0668]	B (a compound having 3 or more and less than 10 is denoted as B)	B (a compound having 3 or more and less than 10 is denoted as B)
CCO[C@@H]1C[C@H]2C(=O)NC3(CCC3)C(=O)N(C)[C@@H](C3CCCC3)C(=O)N(C)[C@H](C(=O)N(C)C)CC(=O)N(C)[C@@H](CC(C)(C)C)C(=O)N[C@@H]([C@@H](C)CC)C(=O)N(C)CC(=O)N(C)[C@H]3CCCCCN(C3=O)[C@@H](Cc3ccc(C(F)(F)F)cc3)C(=O)N(C)CC(=O)N[C@@H](CCc3cc(F)c(C(F)(F)F)c(F)c3)C(=O)N2C1 [PP0669]	B (a compound having 3 or more and less than 10 is denoted as B)	B (a compound having 3 or more and less than 10 is denoted as B)
CCO[C@@H]1C[C@H]2C(=O)NC3(CCC3)C(=O)N(C)[C@@H](C3CCCC3)C(=O)N(C)[C@H](C(=O)N(C)C)CC(=O)N(C)[C@@H](CC3CCCC3)C(=O)N[C@@H]([C@@H](C)CC)C(=O)N(C)CC(=O)N(C)[C@H]3CCCCCN(C3=O)[C@@H](Cc3ccc(C(F)(F)F)cc3)C(=O)N(C)CC(=O)N[C@@H](CCc3cc(F)c(C(F)(F)F)c(F)c3)C(=O)N2C1 [PP0670]	B (a compound having 3 or more and less than 10 is denoted as B)	B (a compound having 3 or more and less than 10 is denoted as B)
CCO[C@@H]1C[C@H]2C(=O)NC3(CCC3)C(=O)N(C)[C@@H](C3CCCC3)C(=O)N(C)[C@H](C(=O)N(C)C)CC(=O)N(C)[C@@H](CC3CCCCC3)C(=O)N[C@@H]([C@@H](C)CC)C(=O)N(C)CC(=O)N(C)[C@H]3CCCCCN(C3=O)[C@@H](Cc3ccc(C(F)(F)F)cc3)C(=O)N(C)CC(=O)N[C@@H](CCc3cc(F)c(C(F)(F)F)c(F)c3)C(=O)N2C1 [PP0671]	B (a compound having 3 or more and less than 10 is denoted as B)	B (a compound having 3 or more and less than 10 is denoted as B)
CCO[C@@H]1C[C@H]2C(=O)NC3(CCC3)C(=O)N(C)[C@@H](C3CCCC3)C(=O)N(C)[C@H](C(=O)N(C)C)CC(=O)N(C)[C@@H](Cc3ccccc3)C(=O)N[C@@H]([C@@H](C)CC)C(=O)N(C)CC(=O)N(C)[C@H]3CCCCCN(C3=O)[C@@H](Cc3ccc(C(F)(F)F)cc3)C(=O)N(C)CC(=O)N[C@@H](CCc3cc(F)c(C(F)(F)F)c(F)c3)C(=O)N2C1 [PP0672]	B (a compound having 3 or more and less than 10 is denoted as B)	B (a compound having 3 or more and less than 10 is denoted as B)
